Test system: AMATA
Assay: Greenhouse test, pre-emergence (PE) soil application
Format: in vivo, Amaranthus rudis
Conditions: group (B) compound alone, 20 g of AS/ha
Text: The 1:1 mixture of the two soil types was used specifically for cultivating small-seeded dicotyledonous weed since the standard field soil on its own tends to silt up, which may have an adverse effect on the emergence of small-seeded weeds. The resistances mentioned in the tables were confirmed beforehand in standard monitoring experiments. Nevertheless, the origins examined may have additional, hitherto unconfirmed resistances to various mechanisms of action.
The pots were then cultivated in a greenhouse (12-16 h light, temperature day 20-22° C., night 15-18° C.) until the time of application. The pots were treated at various BBCH stages of the seeds/plants on a laboratory track sprayer with spray liquors comprising the compositions according to the invention, mixtures of the prior art or the individual components. Application of the active compounds or active compound combinations and wetting agents formulated as WG, WP, EC or otherwise was carried out at the appropriate growth stages of the plants. The amount of water used for spray application was 100-600 l/ha. After the treatment, the plants were returned to the greenhouses and fertilized and watered as required. The pots were cultivated in a greenhouse (12-16 h light, temperature day 20-22° C., night 15-18° C.).
3 weeks after the application, the foliar effect was evaluated on a scale of 0-100%:
0%=no noticeable effect compared to untreated plants
100%=full effect compared to untreated plants
The following abbreviations were used: • BBCH the BBCH code provides information about the morphological development stage of a plant. Officially, the abbreviation denotes the Biologische Bundesanstalt, Bundessortenamt and CHemische Industrie [Federal Biological Institute for Agriculture and Forestry, Federal Office for Crop Plant Varieties, Chemical Industry]. The range of BBCH 00-10 denotes the germination stages of the seeds until surface penetration. […]

Structure (SMILES)	effect on AMATA resistant - group B (TSR), C1 (TSR)
COc1cc(OC)nc(NC(=O)NS(=O)(=O)c2ncccc2C(F)(F)F)n1 [(B1), flazasulfuron]	60
COc1cc(OC)nc(NC(=O)NS(=O)(=O)c2cc(NC=O)ccc2C(=O)N(C)C)n1 [(B2), foramsulfuron]	40
CCS(=O)(=O)c1cccnc1S(=O)(=O)NC(=O)Nc1nc(OC)cc(OC)n1 [(B3), rimsulfuron]	60
